For assay [1], the target named is T1, MHC-II DRB1*03:01 (Homo sapiens, UniProt P01903+P01911, A100K/A102G/A103R/A169T/F55Y/I96L/K41T/L162R/M171V/P40S/Q125H/Q178H/Q39Y/R42S/S66N/T106N/T262R/W38E/Y61H). Put plainly: Cell-free REVEAL class II stability assay. To be noted: half-life of peptide-MHC-II complex (h, capped at 120) x Binding Score / 100, conformational ELISA. A digest of the protocol:
(§1)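 Peptide–MHC-II complex formation followed over 96 hr at 10°C, with samples snap-frozen at set time points and assembled complex detected by conformational anti-HLA ELISA. On- and off-rates come from one-phase association/dissociation fits; half-lives derive from rate constants, and stability score = half-life × Binding Score / 100.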
In general terms: In an ELISA, binding on a coated surface is turned into a signal by an enzyme label.

Assay [2] has as its target T2, MHC-II DRB1*07:01 (Homo sapiens, UniProt P01903+P01911, A100R/A102G/A103Q/D57E/D86V/E43K/F76Y/K127E/L162R/M171V/P40G/Q125H/Q99D/R33Q/R42Y/R54Q/S133A/S66F/T210M/V115G/Y107V/Y59L/Y89S). Put plainly: Cell-free REVEAL class II stability assay. To be noted: half-life of peptide-MHC-II complex (h, capped at 120) x Binding Score / 100, conformational ELISA. A digest of the protocol: as §1

The target in assay [3] is T3, MHC-II DRB1*04:01 (Homo sapiens, UniProt P01903+P01911, A100K/A169T/F76Y/I96L/K127E/L162R/M171V/N62H/P40V/Q125Y/R42H/S133A/S149N/S66Y/V115G/V209L/W38E). Put plainly: Cell-free REVEAL class II stability assay. The conditions noted are these: half-life of peptide-MHC-II complex (h, capped at 120) x Binding Score / 100, conformational ELISA. A digest of the protocol:
as §1

Assay [4] has as its target T4, MHC-II DRB1*15:01 (Homo sapiens, UniProt P01903+P01911).
T4 construct: purchased ProImmune
Put plainly: Cell-free REVEAL class II stability assay. To be noted: half-life of peptide-MHC-II complex (h, capped at 120) x Binding Score / 100, conformational ELISA. A digest of the protocol: as §1

Assay [5] deals with T5, MHC-II DRB1*11:01 (Homo sapiens, UniProt P01903+P01911, A100R/A169T/A87E/I96F/K41T/L162R/M171V/P40S/Q125H/Q178H/Q39Y/Q99D/R42S/S66Y/T262R/V115G/W38E). Put plainly: Cell-free REVEAL class II stability assay. To be noted: half-life of peptide-MHC-II complex (h, capped at 120) x Binding Score / 100, conformational ELISA. The procedure, abridged: as §1
The target in assay [6] is T6, MHC-II DRB1*15:03 (Homo sapiens, UniProt P01903+P01911, Y59H).
T6 construct: purchased ProImmune
Put plainly: Cell-free REVEAL class II stability assay. To be noted: half-life of peptide-MHC-II complex (h, capped at 120) x Binding Score / 100, conformational ELISA. A digest of the protocol:
as §1

Assay [7] has as its target T1, MHC-II DRB1*03:01. Put plainly: Cell-free REVEAL class II binding assay. To be noted: signal of test peptide as percentage of allele-specific positive control peptide, fluorescence, conformation-specific monoclonal antibody. The procedure, abridged: (§2)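 Test peptides incubated with MHC-II protein; correctly folded complexes then detected with a specific monoclonal antibody giving a fluorescence signal. Each peptide scored quantitatively against that allele's positive control epitope, expressed as a percentage.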

In assay [8] the target is T2, MHC-II DRB1*07:01. Put plainly: Cell-free REVEAL class II binding assay. The conditions noted are these: signal of test peptide as percentage of allele-specific positive control peptide, fluorescence, conformation-specific monoclonal antibody. The procedure, abridged: as §2
The target in assay [9] is T3, MHC-II DRB1*04:01. Put plainly: Cell-free REVEAL class II binding assay. To be noted: signal of test peptide as percentage of allele-specific positive control peptide, fluorescence, conformation-specific monoclonal antibody. A digest of the protocol:
as §2

For assay [10], the target named is T4, MHC-II DRB1*15:01. Put plainly: Cell-free REVEAL class II binding assay. To be noted: signal of test peptide as percentage of allele-specific positive control peptide, fluorescence, conformation-specific monoclonal antibody. The procedure, abridged:
as §2

Assay [11] deals with T5, MHC-II DRB1*11:01. Put plainly: Cell-free REVEAL class II binding assay. The conditions noted are these: signal of test peptide as percentage of allele-specific positive control peptide, fluorescence, conformation-specific monoclonal antibody. The procedure, abridged:
as §2

Assay [12] concerns the target T6, MHC-II DRB1*15:03. Put plainly: Cell-free REVEAL class II binding assay. To be noted: signal of test peptide as percentage of allele-specific positive control peptide, fluorescence, conformation-specific monoclonal antibody. The procedure, abridged: as §2

T1 sequence (P01903 26-254 limits assumed, other chains not shown): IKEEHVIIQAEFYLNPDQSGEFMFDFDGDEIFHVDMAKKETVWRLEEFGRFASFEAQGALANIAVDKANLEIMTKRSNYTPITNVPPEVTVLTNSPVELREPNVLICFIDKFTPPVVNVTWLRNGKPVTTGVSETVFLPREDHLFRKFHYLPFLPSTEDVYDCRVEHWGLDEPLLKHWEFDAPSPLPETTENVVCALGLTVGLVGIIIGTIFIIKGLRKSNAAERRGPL
T5 sequence (P01903 26-254 limits assumed, other chains not shown): as above
T6 sequence (P01903 26-254, other chains not shown): as the sequence (P01903 26-254 limits assumed, other chains not shown) above

With “YISQFIIMYSLDGKK [synthetic wild type FVIII 15 mer peptide]”, the “Stability Index” value at MHC-II DRB1*03:01 [1] is given as 0.2; at MHC-II DRB1*07:01 [2], 0.0; on MHC-II DRB1*04:01 [3], 30.9; on MHC-II DRB1*15:01 [4] it was 723.1; at MHC-II DRB1*11:01 [5], 33.1; on MHC-II DRB1*15:03 [6] it was 1.7. In addition, the “Binding Score” value at MHC-II DRB1*03:01 [7] was determined as 1.8%; at MHC-II DRB1*07:01 [8] it was 0.0%; on MHC-II DRB1*04:01 [9], 44.5%; at MHC-II DRB1*15:01 [10], 602.6%; on MHC-II DRB1*11:01 [11], 114.1%; at MHC-II DRB1*15:03 [12] it was 1.4%.

Regarding “YNIYPHGITDVRPLY [synthetic wild type FVIII 15 mer peptide, region of ns-SNP R484H]”, the “Stability Index” value on MHC-II DRB1*03:01 [1] was determined as 0.0; on MHC-II DRB1*07:01 [2] it was 0.1; on MHC-II DRB1*04:01 [3] it was 0.2; at MHC-II DRB1*15:01 [4], 2.0; on MHC-II DRB1*11:01 [5], 1.1; on MHC-II DRB1*15:03 [6], 0.1. Moreover, the “Binding Score” value on MHC-II DRB1*03:01 [7] is recorded as 0.2%; at MHC-II DRB1*07:01 [8] it was 0.1%; at MHC-II DRB1*04:01 [9] it was 2.1%; at MHC-II DRB1*15:01 [10], 40.8%; at MHC-II DRB1*11:01 [11], 35.8%; at MHC-II DRB1*15:03 [12], 0.1%.

“YPHGITDVRPLYSRR [synthetic wild type FVIII 15 mer peptide, region of ns-SNP R484H]”: the “Stability Index” value on MHC-II DRB1*03:01 [1] amounted to 5.2; at MHC-II DRB1*07:01 [2], 0.1; on MHC-II DRB1*04:01 [3] it was 0.0; on MHC-II DRB1*15:01 [4] it was 0.5; at MHC-II DRB1*11:01 [5] it was 1.2; on MHC-II DRB1*15:03 [6], 0.1. Moreover, the “Binding Score” value is listed as 4.8% at MHC-II DRB1*03:01 [7]; 0.1% at MHC-II DRB1*07:01 [8]; 0.1% on MHC-II DRB1*04:01 [9]; 0.4% at MHC-II DRB1*15:01 [10]; 46.7% on MHC-II DRB1*11:01 [11]; 0.1% at MHC-II DRB1*15:03 [12].

With “YSLDGKKWQTYRGNS [synthetic wild type FVIII 15 mer peptide]”, the “Stability Index” value on MHC-II DRB1*03:01 [1] turned out to be 0.0; at MHC-II DRB1*07:01 [2], 0.0; on MHC-II DRB1*04:01 [3] it was 0.1; at MHC-II DRB1*15:01 [4] it was 3.0; at MHC-II DRB1*11:01 [5] it was 1.1; at MHC-II DRB1*15:03 [6], 0.0. In addition, the “Binding Score” value is 0.0% at MHC-II DRB1*03:01 [7]; 0.0% on MHC-II DRB1*07:01 [8]; 0.9% at MHC-II DRB1*04:01 [9]; 11.8% on MHC-II DRB1*15:01 [10]; 23.5% on MHC-II DRB1*11:01 [11]; 0.2% on MHC-II DRB1*15:03 [12].

“YTFKHKMVYEDTLTL [synthetic wild type FVIII 15 mer peptide]”: the “Stability Index” value on MHC-II DRB1*03:01 [1] is 0.0; on MHC-II DRB1*07:01 [2] it was 0.0; on MHC-II DRB1*04:01 [3], 0.5; on MHC-II DRB1*15:01 [4], 1.1; on MHC-II DRB1*11:01 [5], 13.7; on MHC-II DRB1*15:03 [6], 0.1. Moreover, the “Binding Score” value at MHC-II DRB1*03:01 [7] came out at 0.8%; on MHC-II DRB1*07:01 [8] it was 0.0%; at MHC-II DRB1*04:01 [9], 5.0%; at MHC-II DRB1*15:01 [10], 0.9%; at MHC-II DRB1*11:01 [11], 31.6%; on MHC-II DRB1*15:03 [12], 0.0%.

Source of the values: article PMC3656107, “Polymorphisms in the F8 Gene and MHC-II Variants as Risk Factors for the Development of Inhibitory Anti-Factor VIII Antibodies during the Treatment of Hemophilia A: A Computational Assessment” (PLoS Computational Biology, 2013).
